Values joined by “and” are separate entries in the source; they are usually repeats but may differ in a detail not shown here. Equal values may be shown once. Inconclusive results and toxic doses are left out.

The assay has as its system L1210 leukemia ip in BDF1 mice, survival T/C. The assay can be described thus: NCI In Vivo Anticancer Drug Screen. Data for tumor model L1210 Leukemia (intraperitoneal) in B6D2F1 (BDF1) mice. Conditions: endpoint: mean survival time, higher = longer survival. The method, boiled down: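 Tumor was transplanted into mice, which were then dosed with test compound or vehicle alone. Survival was recorded for each group, and the treated figure was expressed relative to the control figure.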

Where [1] appears, read: dose: 50.0 mg/kg/injection, schedule: Q01DX001 (ip), vehicle: saline.
[2] abbreviates: dose: 100.0 mg/kg/injection, schedule: Q01DX001 (ip), vehicle: saline.
Setting [3] is: dose: 200.0 mg/kg/injection, schedule: Q01DX001 (ip), vehicle: saline.
Setting [4] is: dose: 100.0 mg/kg/injection, schedule: Q04DX003 (ip), vehicle: saline.
Where [5] appears, read: dose: 200.0 mg/kg/injection, schedule: Q04DX003 (ip), vehicle: saline.

For `C(CC1CO1)C1CO1` (configuration not stated), the T/C was 197 % of control (dose: 7.0 mg/kg/injection, schedule: Q01DX009 (ip), vehicle: acetone); 118 % of control (dose: 9.0 mg/kg/injection, schedule: Q01DX Z (ip), vehicle: methylcellulose (MC)); 102 % of control and 115 % of control (dose: 9.2 mg/kg/injection, schedule: Q01DX009 (ip), vehicle: saline); 102 % of control (dose: 10.6 mg/kg/injection, schedule: Q01DX001 (ip), vehicle: acetone); 115 % of control (dose: 10.6 mg/kg/injection, schedule: Q01DX009 (ip), vehicle: acetone); 112 % of control (dose: 10.6 mg/kg/injection, schedule: Q04DX003 (ip), vehicle: acetone). Moreover, the T/C was 102 % of control (dose: 10.6 mg/kg/injection, schedule: Q08DX002 (ip), vehicle: acetone); 152 % of control (dose: 14.0 mg/kg/injection, schedule: Q01DX009 (ip), vehicle: acetone); 102 % of control and 105 % of control (dose: 14.0 mg/kg/injection, schedule: Q01DX009 (ip), vehicle: saline); 115 % of control (dose: 16.0 mg/kg/injection, schedule: Q01DX009 (ip), vehicle: acetone); 115 % of control (dose: 16.0 mg/kg/injection, schedule: Q04DX003 (ip), vehicle: acetone); 112 % of control (dose: 16.0 mg/kg/injection, schedule: Q08DX002 (ip), vehicle: acetone). Moreover, the T/C is, setting by setting: (dose: 18.0 mg/kg/injection, schedule: Q01DX Z (ip), vehicle: methylcellulose (MC)) 122 % of control and 124 % of control; (dose: 18.8 mg/kg/injection, schedule: Q01DX009 (ip), vehicle: saline) 107 % of control; (dose: 21.0 mg/kg/injection, schedule: Q01DX009 (ip), vehicle: saline) 109 % of control and 116 % of control; (dose: 22.0 mg/kg/injection, schedule: Q01DX001 (ip), vehicle: saline) 109 % of control; (dose: 24.0 mg/kg/injection, schedule: Q01DX001 (ip), vehicle: acetone) 103 % of control; (dose: 24.0 mg/kg/injection, schedule: Q04DX003 (ip), vehicle: acetone) 124 % of control. Besides, the T/C reads like this: (dose: 24.0 mg/kg/injection, schedule: Q08DX002 (ip), vehicle: acetone) 105 % of control; (dose: 27.0 mg/kg/injection, schedule: Q01DX Z (ip), vehicle: methylcellulose (MC)) 110 % of control and 116 % of control; (dose: 33.0 mg/kg/injection, schedule: Q01DX001 (ip), vehicle: saline) 107 % of control; (dose: 36.0 mg/kg/injection, schedule: Q01DX001 (ip), vehicle: acetone) 110 % of control; (dose: 36.0 mg/kg/injection, schedule: Q04DX003 (ip), vehicle: acetone) 124 % of control; (dose: 36.0 mg/kg/injection, schedule: Q08DX002 (ip), vehicle: acetone) 117 % of control. For the same molecule, the T/C runs as follows: (dose: 37.5 mg/kg/injection, schedule: Q01DX009 (ip), vehicle: saline) 150 % of control; (dose: 37.5 mg/kg/injection, schedule: Q04DX003 (ip), vehicle: saline sonified) 113 % of control; (dose: 40.0 mg/kg/injection, schedule: Q01DX Z (ip), vehicle: methylcellulose (MC)) 108 % of control and 116 % of control; under setting [1], 117 % of control; (dose: 54.0 mg/kg/injection, schedule: Q01DX001 (ip), vehicle: acetone) 121 % of control; (dose: 54.0 mg/kg/injection, schedule: Q08DX002 (ip), vehicle: acetone) 113 % of control. The T/C is 86 % of control (dose: 60.0 mg/kg/injection, schedule: Q01DX Z (ip), vehicle: methylcellulose (MC)); 168 % of control (dose: 66.0 mg/kg/injection, schedule: Q01DX009 (ip), vehicle: acetone); 117 % of control (dose: 66.0 mg/kg/injection, schedule: Q04DX003 (ip), vehicle: saline); 175 % of control (dose: 75.0 mg/kg/injection, schedule: Q01DX009 (ip), vehicle: saline); 119 % of control (dose: 75.0 mg/kg/injection, schedule: Q04DX003 (ip), vehicle: saline sonified); 118 % of control (dose: 81.0 mg/kg/injection, schedule: Q01DX001 (ip), vehicle: acetone). Further, the T/C is, setting by setting: (dose: 81.0 mg/kg/injection, schedule: Q04DX003 (ip), vehicle: acetone) 154 % of control; (dose: 81.0 mg/kg/injection, schedule: Q08DX002 (ip), vehicle: acetone) 123 % of control; under setting [2], 118 % of control; (dose: 100.0 mg/kg/injection, schedule: Q01DX009 (ip), vehicle: acetone) 224 % of control; (dose: 100.0 mg/kg/injection, schedule: Q04DX003 (ip), vehicle: acetone) 161 % of control; (dose: 150.0 mg/kg/injection, schedule: Q04DX003 (ip), vehicle: saline) 101 % of control. The T/C under setting [3] was 121 % of control.
As to `CN(C)c1ccc(S(=O)(=O)Cl)cc1[N+](=O)[O-]`, the T/C by setting is: under setting [4], 104 % of control; under setting [5], 107 % of control; (dose: 400.0 mg/kg/injection, schedule: Q04DX003 (ip), vehicle: saline) 101 % of control.
Take `O=CNC(CSC(c1ccccc1)c1ccccc1)C(=O)O` (configuration not stated): the T/C is 108 % of control (dose: 40.0 mg/kg/injection, schedule: Q01DX009 (ip), vehicle: Klucel (hydroxypropylcellulose) (HPC)); 86 % of control (dose: 75.0 mg/kg/injection, schedule: Q01DX001 (ip), vehicle: Klucel (hydroxypropylcellulose) (HPC)); 105 % of control (dose: 75.0 mg/kg/injection, schedule: Q01DX009 (ip), vehicle: Klucel (hydroxypropylcellulose) (HPC)); 93 % of control (dose: 150.0 mg/kg/injection, schedule: Q01DX001 (ip), vehicle: Klucel (hydroxypropylcellulose) (HPC)); 103 % of control (dose: 150.0 mg/kg/injection, schedule: Q01DX009 (ip), vehicle: Klucel (hydroxypropylcellulose) (HPC)).
As to `CCOC(=O)/C(C#N)=C/c1cc2c3c(c1)CCCN3CCC2`, the T/C reads like this: (dose: 50.0 mg/kg/injection, schedule: Q04DX003 (ip), vehicle: saline with Tween-80) 111 % of control; (dose: 100.0 mg/kg/injection, schedule: Q04DX003 (ip), vehicle: saline with Tween-80) 93 % of control; (dose: 200.0 mg/kg/injection, schedule: Q04DX003 (ip), vehicle: saline with Tween-80) 93 % of control; (dose: 400.0 mg/kg/injection, schedule: Q04DX003 (ip), vehicle: saline with Tween-80) 92 % of control.
As to `C1=Nc2c(ncnc2SCc2ccccc2)NN1`, the T/C (dose: 5.0 mg/kg/injection, schedule: Q01DX001 (ip), vehicle: other) was 100 % of control; the T/C (dose: 10.0 mg/kg/injection, schedule: Q01DX001 (ip), vehicle: other) was 106 % of control; the T/C (dose: 20.0 mg/kg/injection, schedule: Q01DX001 (ip), vehicle: other) is 100 % of control; the T/C (dose: 40.0 mg/kg/injection, schedule: Q01DX001 (ip), vehicle: other) was 100 % of control; the T/C (dose: 50.0 mg/kg/injection, schedule: Q01DX001 (ip), vehicle: other) is 113 % of control; the T/C (dose: 80.0 mg/kg/injection, schedule: Q01DX001 (ip), vehicle: other) is 93 % of control. For the same molecule, the T/C (dose: 100.0 mg/kg/injection, schedule: Q01DX001 (ip), vehicle: other) was 88 % of control.
`CC(C)NCCCN`: the T/C (dose: 25.0 mg/kg/injection, schedule: Q04DX002 (ip), vehicle: saline with Tween-80) is 98 % of control; the T/C (dose: 50.0 mg/kg/injection, schedule: Q04DX002 (ip), vehicle: saline with Tween-80) was 98 % of control; the T/C under setting [2] is 103 % of control; the T/C (dose: 100.0 mg/kg/injection, schedule: Q04DX002 (ip), vehicle: saline with Tween-80) was 101 % of control and 106 % of control; the T/C under setting [3] is 109 % of control.
For the molecule `O=C(O)C1C[n+]2ccccc2O1` (configuration not stated), the T/C (dose: 50.0 mg/kg/injection, schedule: Q01DX009 (ip), vehicle: saline) was 116 % of control; the T/C under setting [4] was 97 % of control; the T/C under setting [5] is 103 % of control.
In the case of `COC(=O)c1nc2c(N)nc(-c3ccccc3)nc2nc1N`, the T/C is, setting by setting: (dose: 100.0 mg/kg/injection, schedule: Q04DX003 (ip), vehicle: Klucel (hydroxypropylcellulose) (HPC)) 103 % of control; (dose: 200.0 mg/kg/injection, schedule: Q04DX003 (ip), vehicle: Klucel (hydroxypropylcellulose) (HPC)) 98 % of control; (dose: 400.0 mg/kg/injection, schedule: Q04DX003 (ip), vehicle: Klucel (hydroxypropylcellulose) (HPC)) 106 % of control.
`COc1ccccc1CCC=O`: the T/C is, setting by setting: under setting [1], 96 % of control; under setting [2], 96 % of control; under setting [3], 102 % of control; (dose: 400.0 mg/kg/injection, schedule: Q01DX001 (ip), vehicle: saline) 102 % of control.

These data come from PubChem BioAssay AID248 (DTP/NCI, 2004).
